Results published in patent US20260274894A1, “CYCLIC POLYPEPTIDE COMPOUND AND USE THEREOF” (BIVISION PHARMACEUTICALS, INC., priority 2023, published 2026).
Numbered stars: 1 amine (or outer) side, 2 acyl side, 3 side chain; on linkers, the order of the positions; unused ones are H or OH. Bridge positions count the residues as written; N and C are the ends. Square brackets hold non-standard residues; d marks the D form. Side chains are listed from the residue outwards. Peptide text beside a SMILES is read from it. * marks the point of attachment. ξ: configuration not given here. NH(CH2)2O(CH2)2NHDOTA = O=C(O)CN1CCN(CC(=O)O)CCN(CC(=O)NCCOCCN*)CCN(CC(=O)O)CC1; X4 = O=C(O)CN1CCN(CC(=O)O)CCN(CC(=O)N2CCc3cc(C(=O)*)ccc3C2)CCN(CC(=O)O)CC1; NH(CH2)5NHDOTA = O=C(O)CN1CCN(CC(=O)O)CCN(CC(=O)NCCCCCN*)CCN(CC(=O)O)CC1; DOTA = O=C(O)CN1CCN(CC(=O)O)CCN(CC(=O)*)CCN(CC(=O)O)CC1; Azetidine3carboxylic = O=C(C1CN([*:1])C1)[*:2]; Pyridine(3,5-bisCH2) = c1ncc(C[*:2])cc1C[*:1]; mXylylene = c1cc(C[*:1])cc(C[*:2])c1; Ethylenediamine = C(CN[*:2])N[*:1]; d(β3hD) = NC(CC(=O)O)CC(=O)O; CH2CH2 = C(C[*:2])[*:1]; Dap = NC[C@H](N)C(=O)O; Hexanoyl = CCCCCC(=O)*; CO = O=C([*:1])[*:2]; ξP = O=C(O)C1CCCN1; Ava = NCCCCC(=O)O; ξC = NC(CS)C(=O)O; NHBu = CCCCN*

Molecular target: T1, FAP protein (Homo sapiens, UniProt Q12884)
T1 construct: purchased Sinobiological
T1 sequence (Q12884 1-760): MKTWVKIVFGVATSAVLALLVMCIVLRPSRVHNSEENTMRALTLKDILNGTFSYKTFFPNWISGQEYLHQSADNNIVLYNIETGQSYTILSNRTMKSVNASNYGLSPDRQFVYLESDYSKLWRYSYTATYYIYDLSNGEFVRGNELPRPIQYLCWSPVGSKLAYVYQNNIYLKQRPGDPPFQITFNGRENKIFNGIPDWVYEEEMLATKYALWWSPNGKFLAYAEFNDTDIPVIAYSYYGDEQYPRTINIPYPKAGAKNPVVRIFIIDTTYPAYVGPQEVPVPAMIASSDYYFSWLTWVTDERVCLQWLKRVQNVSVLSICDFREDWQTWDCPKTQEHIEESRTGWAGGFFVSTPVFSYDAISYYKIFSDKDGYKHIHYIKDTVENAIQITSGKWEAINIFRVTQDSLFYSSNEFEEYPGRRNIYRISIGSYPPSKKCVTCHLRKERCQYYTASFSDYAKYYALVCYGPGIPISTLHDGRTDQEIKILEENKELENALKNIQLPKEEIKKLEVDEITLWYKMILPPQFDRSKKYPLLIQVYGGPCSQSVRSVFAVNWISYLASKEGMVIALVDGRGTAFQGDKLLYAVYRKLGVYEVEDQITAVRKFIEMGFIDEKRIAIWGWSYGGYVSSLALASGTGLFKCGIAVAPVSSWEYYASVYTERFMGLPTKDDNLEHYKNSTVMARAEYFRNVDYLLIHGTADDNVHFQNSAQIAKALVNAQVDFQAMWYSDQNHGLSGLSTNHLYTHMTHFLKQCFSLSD
Experiment: Biacore test of compound affinity to FAP protein
Conditions: Biacore 8K, SA chip, 15° C., 1:1 binding model; read-out: pKD (FAP) (converted)
Protocol: The Biacore 8K (Cytiva) instrument was used to detect ligand binding of the FAP protein (Sinobiological). FAP protein was captured on the SA chip. […] The sensor surface was conditioned by injecting 1M NaCl three consecutive times in 50 mM NaOH. After each ligand injection, additional cleaning was performed using isopropanol in 1M NaCl and 50 mM NaOH (flow path 1 and 2, flow rate of 10 μL/min, injection time of 60 s). […] The analyte was run under the following conditions: analysis temperature of 15° C., analysis step=all set to LMW kinetics; cycle type=single cycle (contact time of 90 s, dissociation time of 1800 s, flow rate of 30 μL/min, flow channels 1 and 2); channel detection=2-1. Data was evaluated using the Biacore Insight Evaluation Software, and the data were fitted to a 1:1 binding model. The Biacore results are shown in Table 2 below: pKD=−Log KD, where KD is the binding affinity of the compound to the FAP protein as measured by Biacore.

SMILES | Kd
CCCCNC(=O)N[C@H]1CSCc2cccc(c2)CSCC(C(=O)N[C@@H](CCC(=O)NCCNC(=O)c2ccc3c(c2)CCN(C(=O)CN2CCN(CC(=O)O)CCN(CC(=O)O)CCN(CC(=O)O)CC2)C3)C(=O)O)NC(=O)[C@H](Cc2ccccc2)NC(=O)[C@H](CCC(N)=O)NC(=O)[C@H]([C@@H](C)O)NC(=O)C2CCCN2C(=O)C2CN(C2)C1=O (stereo partly drawn) [JHDC26, nBu-urea-[Cys(3MeBn)-hhy39-Pro-Thr-Gln-Phe-Cys]-Glu-(EDA-hhy02-DOTA)-OH] ({NHBu-CO}-C[Azetidine3carboxylic][ξP]TQF[ξC]E([Ethylenediamine-X4])-OH; linker 1-7 via mXylylene) | 10 to 100 nM
CCCCCC(=O)N[C@H]1CSCCSCC(C(=O)N[C@@H](CCC(=O)NCCOCCNC(=O)CN2CCN(CC(=O)O)CCN(CC(=O)O)CCN(CC(=O)O)CC2)C(=O)O)NC(=O)[C@H](Cc2ccccc2)NC(=O)[C@H](CCC(N)=O)NC(=O)[C@H]([C@@H](C)O)NC(=O)C2CCCN2C(=O)C2CN(C2)C1=O (stereo partly drawn) [JHDC27, Hex[Cys(ethylene)-hhy39-Pro-Thr-Gln-Phe-Cys]-Glu-(DAPEG2-DOTA)-OH] (Hexanoyl-C[Azetidine3carboxylic][ξP]TQF[ξC]E(NH(CH2)2O(CH2)2NHDOTA)-OH; linker 1-7 via CH2CH2) | 10 to 100 nM
CCCCCC(=O)N[C@H]1CSSCC(C(=O)N[C@@H](CCC(=O)NCCOCCNC(=O)CN2CCN(CC(=O)O)CCN(CC(=O)O)CCN(CC(=O)O)CC2)C(=O)O)NC(=O)[C@H](Cc2ccccc2)NC(=O)[C@H](CCC(N)=O)NC(=O)[C@H]([C@@H](C)O)NC(=O)C2CCCN2C(=O)C2CN(C2)C1=O (stereo partly drawn) [JHDC30, Hex[Cys(SS)-hhy39-Pro-Thr-Gln-Phe-Cys]-Glu-(DAPEG2-DOTA)-OH] (Hexanoyl-C[Azetidine3carboxylic][ξP]TQF[ξC]E(NH(CH2)2O(CH2)2NHDOTA)-OH; disulfide 1-7) | 10 to 100 nM
CCCCNC(=O)N[C@H]1CSSCC(C(=O)N[C@@H](CCC(=O)NCCOCCNC(=O)CN2CCN(CC(=O)O)CCN(CC(=O)O)CCN(CC(=O)O)CC2)C(=O)O)NC(=O)[C@H](Cc2ccccc2)NC(=O)[C@H](CCC(N)=O)NC(=O)[C@H]([C@@H](C)O)NC(=O)C2CCCN2C(=O)C2CN(C2)C1=O (stereo partly drawn) [JHDC31, nBu-urea-[Cys(SS)-hhy39-Pro-Thr-Gln-Phe-Cys]-Glu-(DAPEG2-DOTA)-OH] ({NHBu-CO}-C[Azetidine3carboxylic][ξP]TQF[ξC]E(NH(CH2)2O(CH2)2NHDOTA)-OH; disulfide 1-7) | 10 to 100 nM
CCCCCC(=O)N[C@H]1CSCc2cncc(c2)CSCC(C(=O)N[C@@H](CCC(=O)NCCOCCNC(=O)CN2CCN(CC(=O)O)CCN(CC(=O)O)CCN(CC(=O)O)CC2)C(=O)O)NC(=O)[C@H](Cc2ccccc2)NC(=O)[C@H](CCC(N)=O)NC(=O)[C@H]([C@@H](C)O)NC(=O)C2CCCN2C(=O)C2CN(C2)C1=O (stereo partly drawn) [JHDC32, Hex[Cys(3MePy)-hhy39-Pro-Thr-Gln-Phe-Cys]-Glu-(DAPEG2-DOTA)-OH] (Hexanoyl-C[Azetidine3carboxylic][ξP]TQF[ξC]E(NH(CH2)2O(CH2)2NHDOTA)-OH; linker 1-7 via Pyridine(3,5-bisCH2)) | 10 to 100 nM
CCCCCC(=O)N[C@H]1CSCc2cccc(c2)CSCC(C(=O)N[C@H](CC(=O)O)CC(=O)NCCOCCNC(=O)CN2CCN(CC(=O)O)CCN(CC(=O)O)CCN(CC(=O)O)CC2)NC(=O)[C@H](Cc2ccccc2)NC(=O)[C@H](CCC(N)=O)NC(=O)[C@H]([C@@H](C)O)NC(=O)C2CCCN2C(=O)C2CN(C2)C1=O (stereo partly drawn) [JHDC36, Hex-[Cys(3MeBn)-hhy39-Pro-Thr-Gln-Phe-Cys]-β-Glu-(DAPEG2-DOTA)-OH] (Hexanoyl-C[Azetidine3carboxylic][ξP]TQF[ξC][d(β3hD)]-{NH(CH2)2O(CH2)2NHDOTA}; linker 1-7 via mXylylene) | 10 to 100 nM

Results, then the molecule that gave them:

Kd | SMILES
10 to 100 nM | CCCCNC(=O)N[C@H]1CSCc2cccc(c2)CSCC(C(=O)N[C@@H](CCC(=O)NCCCCCNC(=O)CN2CCN(CC(=O)O)CCN(CC(=O)O)CCN(CC(=O)O)CC2)C(=O)O)NC(=O)[C@H](Cc2ccccc2)NC(=O)[C@H](CCC(N)=O)NC(=O)[C@H]([C@@H](C)O)NC(=O)C2CCCN2C(=O)C2CN(C2)C1=O (stereo partly drawn) [JHDC28, nBu-urea-[Cys(3MeBn)-hhy39-Pro-Thr-Gln-Phe-Cys]-Glu-(PDA-DOTA)-OH] ({NHBu-CO}-C[Azetidine3carboxylic][ξP]TQF[ξC]E(NH(CH2)5NHDOTA)-OH; linker 1-7 via mXylylene)
10 to 100 nM | CCCCCC(=O)N[C@H]1CSCc2cccc(c2)CSCC(C(=O)N[C@@H](CCC(=O)NCCCCCNC(=O)CN2CCN(CC(=O)O)CCN(CC(=O)O)CCN(CC(=O)O)CC2)C(=O)O)NC(=O)[C@H](Cc2ccccc2)NC(=O)[C@H](CCC(N)=O)NC(=O)[C@H]([C@@H](C)O)NC(=O)C2CCCN2C(=O)C2CN(C2)C1=O (stereo partly drawn) [JHDC29, Hex[Cys(3MeBn)-hhy39-Pro-Thr-Gln-Phe-Cys]-Glu-(PDA-DOTA)-OH] (Hexanoyl-C[Azetidine3carboxylic][ξP]TQF[ξC]E(NH(CH2)5NHDOTA)-OH; linker 1-7 via mXylylene)
10 to 100 nM | CCCCNC(=O)N[C@H]1CSCc2cncc(c2)CSCC(C(=O)N[C@@H](CCC(=O)NCCOCCNC(=O)CN2CCN(CC(=O)O)CCN(CC(=O)O)CCN(CC(=O)O)CC2)C(=O)O)NC(=O)[C@H](Cc2ccccc2)NC(=O)[C@H](CCC(N)=O)NC(=O)[C@H]([C@@H](C)O)NC(=O)C2CCCN2C(=O)C2CN(C2)C1=O (stereo partly drawn) [JHDC33, nBu-urea-[Cys(3MePy)-hhy39-Pro-Thr-Gln-Phe-Cys]-Glu-(DAPEG2-DOTA)-OH] ({NHBu-CO}-C[Azetidine3carboxylic][ξP]TQF[ξC]E(NH(CH2)2O(CH2)2NHDOTA)-OH; linker 1-7 via Pyridine(3,5-bisCH2))
10 to 100 nM | CCCCNC(=O)N[C@H]1CSCc2cccc(c2)CSCC(C(=O)N[C@H](CC(=O)O)CC(=O)NCCOCCNC(=O)CN2CCN(CC(=O)O)CCN(CC(=O)O)CCN(CC(=O)O)CC2)NC(=O)[C@H](Cc2ccccc2)NC(=O)[C@H](CCC(N)=O)NC(=O)[C@H]([C@@H](C)O)NC(=O)C2CCCN2C(=O)C2CN(C2)C1=O (stereo partly drawn) [JHDC34, nBu-urea-[Cys(3MeBn)-hhy39-Pro-Thr-Gln-Phe-Cys]-p-Glu-(DAPEG2-DOTA)-OH] ({NHBu-CO}-C[Azetidine3carboxylic][ξP]TQF[ξC][d(β3hD)]-{NH(CH2)2O(CH2)2NHDOTA}; linker 1-7 via mXylylene)
10 to 100 nM | CCCCNC(=O)N[C@H]1CSCc2cccc(c2)CSCC(C(=O)N[C@H](CC(=O)O)CC(=O)NCCNC(=O)CN2CCN(CC(=O)O)CCN(CC(=O)O)CCN(CC(=O)O)CC2)NC(=O)[C@H](Cc2ccccc2)NC(=O)[C@H](CCC(N)=O)NC(=O)[C@H]([C@@H](C)O)NC(=O)C2CCCN2C(=O)C2CN(C2)C1=O (stereo partly drawn) [JHDC35, nBu-urea-[Cys(3MeBn)-hhy39-Pro-Thr-Gln-Phe-Cys]-p-Glu-(EDA-DOTA)-OH] ({NHBu-CO}-C[Azetidine3carboxylic][ξP]TQF[ξC][d(β3hD)]-{Ethylenediamine-DOTA}; linker 1-7 via mXylylene)
10 to 100 nM | CCCCCC(=O)N[C@H]1CSCc2cccc(c2)CSCC(C(=O)N[C@@H](CNC(=O)CCCCNC(=O)CN2CCN(CC(=O)O)CCN(CC(=O)O)CCN(CC(=O)O)CC2)C(=O)O)NC(=O)[C@H](Cc2ccccc2)NC(=O)[C@H](CCC(N)=O)NC(=O)[C@H]([C@@H](C)O)NC(=O)C2CCCN2C(=O)C2CN(C2)C1=O (stereo partly drawn) [JHDC40, Hex-[Cys(3MeBn)-hhy39-Pro-Thr-Gln-Phe-Cys]-DAPA-(APTA-DOTA)-OH] (Hexanoyl-C[Azetidine3carboxylic][ξP]TQF[ξC][Dap]([Ava-DOTA])-OH; linker 1-7 via mXylylene)
10 to 100 nM | CCCCNC(=O)N[C@H]1CSCc2cccc(c2)CSCC(C(=O)N[C@@H](CNC(=O)CCCCNC(=O)CN2CCN(CC(=O)O)CCN(CC(=O)O)CCN(CC(=O)O)CC2)C(=O)O)NC(=O)[C@H](Cc2ccccc2)NC(=O)[C@H](CCC(N)=O)NC(=O)[C@H]([C@@H](C)O)NC(=O)C2CCCN2C(=O)C2CN(C2)C1=O (stereo partly drawn) [JHDC41, nBu-urea-[Cys(3MeBn)-hhy39-Pro-Thr-Gln-Phe-Cys]-DAPA-(APTA-DOTA)-OH] ({NHBu-CO}-C[Azetidine3carboxylic][ξP]TQF[ξC][Dap]([Ava-DOTA])-OH; linker 1-7 via mXylylene)
